Among the data in patent US20240336608A1, “IL4I1 INHIBITORS AND METHODS OF USE” (Merck Sharp & Dohme LLC, priority 2023, published 2024) are EC50 values, retold here.

Molecules are shown by their SMILES.

The test has as its target T1, recombinant IL4I1 (Homo sapiens, UniProt Q96RQ9).
T1 construct: purchased R&D Systems 5684-AO-020
T1 sequence (Q96RQ9 22-567): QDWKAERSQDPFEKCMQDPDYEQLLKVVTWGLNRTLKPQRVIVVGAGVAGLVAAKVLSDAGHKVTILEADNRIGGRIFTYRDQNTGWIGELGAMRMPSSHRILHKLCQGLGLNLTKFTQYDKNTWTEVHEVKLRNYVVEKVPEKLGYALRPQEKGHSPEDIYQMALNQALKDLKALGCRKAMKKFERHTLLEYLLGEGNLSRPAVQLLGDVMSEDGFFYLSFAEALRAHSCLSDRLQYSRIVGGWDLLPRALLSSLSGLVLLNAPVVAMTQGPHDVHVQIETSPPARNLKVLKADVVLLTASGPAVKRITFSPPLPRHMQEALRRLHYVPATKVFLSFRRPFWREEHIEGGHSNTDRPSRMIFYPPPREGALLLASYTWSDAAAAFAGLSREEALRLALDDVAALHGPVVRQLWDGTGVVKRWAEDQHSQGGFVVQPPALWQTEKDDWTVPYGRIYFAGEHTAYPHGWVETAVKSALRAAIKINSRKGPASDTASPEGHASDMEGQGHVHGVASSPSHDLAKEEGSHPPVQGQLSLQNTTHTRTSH
Nature of the test: IL4I1 Enzymatic Assay (Amplex Red/HRP coupled detection of H2O2, fluorescence). It counts as biochemical. As to conditions: 1 nM recombinant IL4I1; four-hour pre-incubation with compound; 1 mM each Phe, Tyr, Trp; ten-point titration. As for the experimental part: Interleukin 4 inducible protein 1 (IL4I1) is an L-amino oxidase that catalyzes the oxidation of aromatic residues (Phe, Trp and Tyr): L-amino acid+H2O+O2→2-oxo acid+NH3+H2O2. Equal molar of H2O2 and the corresponding alpha-ketoacid are produced when IL4I1 and substrate are added. In this assay, the hydrogen peroxide generated by IL4I1 is then detected through a coupled reaction with Amplex Red (10-acetyl-3,7-dihydroxyphenoxazine) and […] (HRP) to produce Resorufin product that could be detected in the form of fluorescence signals. The assessment of the inhibitory effect of small molecules (EC50) on IL4I1 is measured by the effectiveness of the compounds to inhibit the production of H202.
Using this assay, the potency (EC50) of each compound was determined from a ten-point (1:3 serial dilution) titration curve using the following outlined procedure. To each well of a black flat-bottom Greiner (Cat #781076) 384 well-plate, 125 nL of compound (0.5% DMSO in final assay volume of 25 μL) was dispensed, followed by the addition of 12.5 μL of 1× assay buffer (50 mM Hepes 7.0 and 0.005% Tween20 (Sigma, Cat #P8341; low peroxide grade)) containing 2 nM of recombinant IL4I1 (R&D Systems, Cat #5684-AO-020). Plates were placed in an ambient temperature humidified chamber for a four-hour pre-incubation with compound. Subsequently, each reaction was initiated by the addition of 12.5 μL 1× assay buffer containing 2 mM of each aromatic amino acids (Phe/Tyr/Trp), 0.1 mM Amplex Red and 2 U/mL of HRP. The final reaction in each well of 25 μL consists of 1 nM of IL4I1, 1 mM of each residue (Phe, Tyr and Trp), 0.05 mM Amplex Red and 1 U/mL of HRP. It should be noted that the concentrations of Amplex Red and HRP used here are in excess such that the conversion of H2O2 to Resorufin product occurs instantaneously and non-rate limiting. Reactions were allowed to proceed for 120 minutes followed by fluorescence readout on a Spectramax with the following set parameters: 544 nm excitation/590 nm emission, 570 nm cutoff (EnVision is an alternative reader). Dose-response curves were generated by plotting percent effect (% inhibition; Y-axis) vs. Log10 compound concentrations (X-axis). EC50 values were calculated using a non-linear regression, four-parameters sigmoidal dose-response model and are shown in Table 16.

One may read the EC50 as the concentration that produces a half-maximal response. In the case of `O=C(NCc1nnc(-c2ccccc2)s1)c1csc(Cc2ccccc2)n1` [Example 16, 2-benzyl-N-((5-phenyl-1,3,4-thiadiazol-2-yl)methyl)thiazole-4-carboxamide], the EC50 is 84 nM.

As for `Cc1ccc(C(=O)NCc2nnc(-c3ccccc3)s2)[nH]1` [Example 17, 5-methyl-N-[(5-phenyl-1,3,4-thiadiazol-2-yl)methyl]-1H-pyrrole-2-carboxamide], the half-maximal effective concentration (EC50) came out at 474 nM. The figure for `CCn1ccc(C(=O)NCc2nnc(-c3ccccc3)s2)c1` [Example 18, 1-ethyl-N-[(5-phenyl-1,3,4-thiadiazol-2-yl)methyl]pyrrole-3-carboxamide] is 40 nM; for `Cn1cc(C(=O)NCc2nnc(-c3ccccc3)s2)nn1` [Example 19, 1-methyl-N-[(5-phenyl-1,3,4-thiadiazol-2-yl)methyl]triazole-4-carboxamide] it is 18 nM; for `Cc1c(C(=O)NCc2nnc(-c3ccccc3)s2)oc2cccc(O)c12` [Example 20, 4-hydroxy-3-methyl-N-[(5-phenyl-1,3,4-thiadiazol-2-yl)methyl]benzofuran-2-carboxamide] it is 340 nM. The result for `CC(C)Cc1cc(C(=O)NCc2nnc(-c3ccccc3)s2)[nH]n1` [Example 21, 3-isobutyl-N-((5-phenyl-1,3,4-thiadiazol-2-yl)methyl)-1H-pyrazole-5-carboxamide] reads 209 nM; that for `O=C(NCc1nnc(-c2ccccc2)s1)c1scc2c1OCCO2` [Example 22, N-[(5-phenyl-1,3,4-thiadiazol-2-yl)methyl]-2,3-dihydrothieno[3,4-b][1,4]dioxine-5-carboxamide], 27 nM. The figure for `Cc1cc(C(=O)NCc2nnc(-c3ccccc3)s2)no1` [Example 23, 5-methyl-N-[(5-phenyl-1,3,4-thiadiazol-2-yl)methyl]isoxazole-3-carboxamide] is 207 nM. Turning to `Cc1onc(C(=O)NCc2nnc(-c3ccccc3)s2)c1C` [Example 24, 4,5-dimethyl-N-[(5-phenyl-1,3,4-thiadiazol-2-yl)methyl]isoxazole-3-carboxamide], the EC50 is 93 nM. The figure for `Cc1cc(C(=O)NCc2nnc(-c3ccccc3)s2)on1` [Example 25, 3-methyl-N-[(5-phenyl-1,3,4-thiadiazol-2-yl)methyl]isoxazole-5-carboxamide] is 76 nM; for `CC(C)c1cc(C(=O)NCc2nnc(-c3ccccc3)s2)no1` [Example 26, 5-isopropyl-N-[(5-phenyl-1,3,4-thiadiazol-2-yl)methyl]isoxazole-3-carboxamide] it is 43 nM; for `Cc1n[nH]c(C(=O)NCc2nnc(-c3ccccc3)s2)n1` [Example 27, 3-methyl-N-((5-phenyl-1,3,4-thiadiazol-2-yl)methyl)-1H-1,2,4-triazole-5-carboxamide] it is 292 nM. The figure for `O=C(NCc1nnc(-c2ccccc2)s1)c1cc(C(F)(F)F)n[nH]1` [Example 28, N-[(5-phenyl-1,3,4-thiadiazol-2-yl)methyl]-3-(trifluoromethyl)-1H-pyrazole-5-carboxamide] is 710 nM; for `COc1ccsc1C(=O)NCc1nnc(-c2ccccc2)s1` [Example 29, 3-methoxy-N-[(5-phenyl-1,3,4-thiadiazol-2-yl)methyl]thiophene-2-carboxamide] it is 10 nM. On to `O=C(NCc1nnc(-c2ccccc2)s1)c1cn([C@@H]2CO[C@H]3[C@@H]2OC[C@H]3O)nn1` [Example 30, 1-((3R,3aR,6R,6aR)-6-hydroxyhexahydrofuro[3,2-b]furan-3-yl)-N-((5-phenyl-1,3,4-thiadiazol-2-yl)methyl)-1H-1,2,3-triazole-4-carboxamide], for which the concentration giving a half-maximal response (EC50) was 130 nM. The figure for `O=C(NCc1nnc(-c2ccccc2)s1)c1n[nH]c(C2CC2)c1F` [Example 31, 5-cyclopropyl-4-fluoro-N-[(5-phenyl-1,3,4-thiadiazol-2-yl)methyl]-1H-pyrazole-3-carboxamide] is 42 nM; for `Cn1cnc(C(=O)NCc2nnc(-c3ccccc3)s2)c1` [Example 32, 1-methyl-N-((5-phenyl-1,3,4-thiadiazol-2-yl)methyl)-1H-imidazole-4-carboxamide] it is 77 nM. The figure for `O=C(NCc1nnc(-c2ccccc2)s1)c1cc(C2CC2)n[nH]1` [Example 33, 3-cyclopropyl-N-[(5-phenyl-1,3,4-thiadiazol-2-yl)methyl]-1H-pyrazole-5-carboxamide] is 170 nM.

For the compound `O=C(NCc1nnc(-c2ccccc2)s1)c1cc2n(n1)CCSC2` [Example 34, N-[(5-phenyl-1,3,4-thiadiazol-2-yl)methyl]-6,7-dihydro-4H-pyrazolo[5,1-c][1,4]thiazine-2-carboxamide], the EC50 is 453 nM. The figure for `O=C(NCc1nnc(-c2ccccc2)s1)c1cc(C2CC2)on1` [Example 35, 5-cyclopropyl-N-[(5-phenyl-1,3,4-thiadiazol-2-yl)methyl]isoxazole-3-carboxamide] is 8 nM; for `Cc1cc(C(=O)NCc2nnc(-c3ccccc3)s2)c(C)o1` [Example 36, 2,5-dimethyl-N-[(5-phenyl-1,3,4-thiadiazol-2-yl)methyl]furan-3-carboxamide] it is 487 nM. The result for `Cc1csc(C(=O)NCc2nnc(-c3ccccc3)s2)c1Cl` [Example 37, 3-chloro-4-methyl-N-[(5-phenyl-1,3,4-thiadiazol-2-yl)methyl]thiophene-2-carboxamide] reads 12 nM; that for `Cc1cc(C(=O)NCc2nnc(-c3ccccc3)s2)oc1C` [Example 38, 4,5-dimethyl-N-[(5-phenyl-1,3,4-thiadiazol-2-yl)methyl]furan-2-carboxamide], 890 nM. The result for `CCCc1cc(C(=O)NCc2nnc(-c3ccccc3)s2)no1` [Example 39, N-[(5-phenyl-1,3,4-thiadiazol-2-yl)methyl]-5-propyl-isoxazole-3-carboxamide] reads 3 nM. Take `Cc1oc(C)c(C(=O)NCc2nnc(-c3ccccc3)s2)c1C` [Example 40, 2,4,5-trimethyl-N-[(5-phenyl-1,3,4-thiadiazol-2-yl)methyl]furan-3-carboxamide]: the EC50 is 266 nM.

As to `COc1c(C(=O)NCc2nnc(-c3ccccc3)s2)csc1Cl` [Example 41, 5-chloro-4-methoxy-N-[(5-phenyl-1,3,4-thiadiazol-2-yl)methyl]thiophene-3-carboxamide], the EC50 came to 59 nM. The figure for `Cc1n[nH]c(C(=O)NCc2nnc(-c3ccccc3)s2)c1C` [Example 42, 3,4-dimethyl-N-((5-phenyl-1,3,4-thiadiazol-2-yl)methyl)-1H-pyrazole-5-carboxamide] is 458 nM; for `CCn1cc(C(=O)NCc2nnc(-c3ccccc3)s2)cn1` [Example 43, 1-ethyl-N-[(5-phenyl-1,3,4-thiadiazol-2-yl)methyl]pyrazole-4-carboxamide] it is 177 nM. Regarding `O=C(NCc1nnc(-c2ccccc2)s1)c1c[nH]nc1C(F)(F)F` [Example 44, N-[(5-phenyl-1,3,4-thiadiazol-2-yl)methyl]-3-(trifluoromethyl)-1H-pyrazole-4-carboxamide], the EC50 is 770 nM. The figure for `COCc1ccc(C(=O)NCc2nnc(-c3ccccc3)s2)o1` [Example 45, 5-(methoxymethyl)-N-[(5-phenyl-1,3,4-thiadiazol-2-yl)methyl]furan-2-carboxamide] is 552 nM. Turning to `Cc1[nH]nc(C(=O)NCc2nnc(-c3ccccc3)s2)c1F` [Example 46, 4-fluoro-5-methyl-N-[(5-phenyl-1,3,4-thiadiazol-2-yl)methyl]-1H-pyrazole-3-carboxamide], the EC50 was 92 nM.
